As a reminder, the GI50 is the concentration giving 50% growth inhibition. What is called TGI is the concentration giving total growth inhibition.

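All cell lines were grown in 96-well plates and treated with compound for 48 hours. GI50 is the concentration that inhibits growth by half. Definition used: TGI = concentration required for complete inhibition of growth.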

The text below walks through data of PubChem BioAssay (NCI).

Test systems include DU-145 prostate; SK-OV-3 ovarian; COLO 205 colon; SNB-75 CNS; A498 renal; HL-60(TB) leukemia; OVCAR-8 ovarian; HT29 colon; IGROV1 ovarian; SW-620 colon.
Common to all, as to assay: DTP human tumour cell line panel, 48 h

Regarding `COc1ccc(OC)c(Nc2nc3nonc3nc2Nc2cccc(Br)c2)c1`, the GI50 in the assay with DU-145 prostate was 3.4 µM; in the assay on SK-OV-3 ovarian it was 0.486 µM; in the assay with COLO 205 colon it was 0.853 µM; in the assay on SNB-75 CNS, 1.25 µM; in the assay with A498 renal, 0.461 µM; with HL-60(TB) leukemia, 0.702 µM. In addition, the GI50 in the assay on OVCAR-8 ovarian was 1.02 µM; in the assay on HT29 colon, 1.13 µM; in the assay on IGROV1 ovarian it was 2.87 µM; in the assay with SW-620 colon it was 0.86 µM. Also, the TGI in the assay on DU-145 prostate was over 100 µM; with SK-OV-3 ovarian, 4.1 µM; in the assay with COLO 205 colon it was 2.73 µM; in the assay on SNB-75 CNS, 8.12 µM; in the assay with A498 renal, 4.11 µM; with HL-60(TB) leukemia it was 5.9 µM. Further, the TGI in the assay on OVCAR-8 ovarian is over 100 µM; in the assay with HT29 colon, over 100 µM; in the assay with IGROV1 ovarian, 42.5 µM; in the assay on SW-620 colon, over 100 µM.
In the case of `C=CCn1c2ccccc2c2c3c(c4c5ccccc5n(CC=C)c4c21)C(=O)N(O)C3=O`, the GI50 was 3.65 µM in the assay with DU-145 prostate; 3.22 µM with SK-OV-3 ovarian; 2.01 µM with COLO 205 colon; 3.55 µM with SNB-75 CNS; 2.55 µM in the assay with A498 renal; 2.09 µM in the assay with HL-60(TB) leukemia. The GI50 was 4.41 µM in the assay on OVCAR-8 ovarian, 2.02 µM with HT29 colon, 1.4 µM in the assay on IGROV1 ovarian and 4.42 µM in the assay with SW-620 colon. The TGI in the assay with DU-145 prostate was over 100 µM; in the assay with SK-OV-3 ovarian, over 100 µM; with COLO 205 colon it was 9.31 µM; in the assay with SNB-75 CNS, 24.2 µM; with A498 renal, 9.48 µM; in the assay with HL-60(TB) leukemia, 4.31 µM. For the same molecule, the TGI in the assay with OVCAR-8 ovarian was determined as 28.3 µM; in the assay on HT29 colon, 4.9 µM; in the assay with IGROV1 ovarian, 3.8 µM; with SW-620 colon, 29.5 µM.
Take `Cn1ncc(C#N)c1-c1ccc2c(c1)CN([C@H](CN)Cc1cccc(F)c1)C2=O`: the GI50 with DU-145 prostate is 21.3 µM; in the assay with SK-OV-3 ovarian it was 0.255 µM; with COLO 205 colon, 1.85 µM; in the assay with SNB-75 CNS, 0.0925 µM; in the assay on A498 renal it was 0.157 µM; in the assay with HL-60(TB) leukemia, 22.1 µM. The GI50 with OVCAR-8 ovarian was 47.7 µM; in the assay with HT29 colon it was 3.25 µM; with IGROV1 ovarian it was 0.0489 µM; in the assay with SW-620 colon, 23.3 µM. Moreover, the TGI was over 100 µM in the assay with DU-145 prostate; 13.2 µM with SK-OV-3 ovarian; 21 µM in the assay on COLO 205 colon; 3.09 µM in the assay with SNB-75 CNS; 1.39 µM in the assay on A498 renal; 47.8 µM with HL-60(TB) leukemia. For the same molecule, the TGI in the assay on OVCAR-8 ovarian is over 100 µM; in the assay with HT29 colon it was over 100 µM; with IGROV1 ovarian it was 1.59 µM; in the assay on SW-620 colon, over 100 µM.
Turning to `COc1cc(OCc2ccccc2)c2c(CCC(=O)O)cc(=O)oc2c1` (tested in a mixture with another compound), the TGI in the assay on DU-145 prostate is over 100 µM; with SK-OV-3 ovarian, over 100 µM; in the assay on COLO 205 colon it was over 100 µM; in the assay with SNB-75 CNS, over 100 µM; with A498 renal it was 80.6 µM; in the assay with HL-60(TB) leukemia it was 93.7 µM. Besides, the TGI in the assay on OVCAR-8 ovarian, in the assay with HT29 colon, with IGROV1 ovarian and in the assay on SW-620 colon was over 100 µM each time.
Turning to `Cc1nc2sc(C(=O)Nc3cccc(Br)c3C)c(N)c2cc1C(O)c1ccccc1` (stereo not given), the GI50 was 0.0422 µM in the assay with DU-145 prostate; 0.0609 µM with SK-OV-3 ovarian; 0.0464 µM with COLO 205 colon; 0.0279 µM in the assay on SNB-75 CNS; 0.0181 µM with A498 renal; 0.03 µM in the assay with HL-60(TB) leukemia. Moreover, the GI50 in the assay on OVCAR-8 ovarian is 0.0487 µM; in the assay on HT29 colon, 0.0374 µM; in the assay with IGROV1 ovarian, 0.0487 µM; in the assay on SW-620 colon it was 0.0382 µM. For the same molecule, the TGI amounted to 5.16 µM with DU-145 prostate; 75.8 µM in the assay on SK-OV-3 ovarian; 1.07 µM in the assay with COLO 205 colon; 13.4 µM in the assay on SNB-75 CNS; 0.058 µM with A498 renal; 0.0876 µM in the assay with HL-60(TB) leukemia. Moreover, the TGI was over 100 µM with OVCAR-8 ovarian, 12.7 µM in the assay with HT29 colon, 13.2 µM in the assay with IGROV1 ovarian and 19.3 µM in the assay with SW-620 colon.
In the case of `Cc1ccc(N(C=O)c2c([N+](=O)[O-])cc([N+](=O)[O-])c3c2=[N+]([O-])CN=3)cc1`, the TGI was 72.9 µM in the assay with DU-145 prostate; over 100 µM in the assay with SK-OV-3 ovarian; 68.1 µM in the assay on COLO 205 colon; 95.2 µM in the assay with SNB-75 CNS; over 100 µM in the assay with A498 renal; 61.3 µM with HL-60(TB) leukemia. Further, the TGI in the assay on OVCAR-8 ovarian, in the assay on HT29 colon, in the assay with IGROV1 ovarian and in the assay on SW-620 colon was over 100 µM throughout.
Regarding `CN1CCC2(CC1)N=C(SCC(=O)Nc1cnc3ccccc3c1)C(c1ccc(Br)cc1)=N2`, the GI50 in the assay with DU-145 prostate was 3.24 µM; with SK-OV-3 ovarian, 4.25 µM; with COLO 205 colon, 1.64 µM; in the assay on SNB-75 CNS it was 2.04 µM; with A498 renal it was 3.96 µM; in the assay with HL-60(TB) leukemia, 1.61 µM. Further, the GI50 was 2.33 µM in the assay on OVCAR-8 ovarian, 1.85 µM in the assay on HT29 colon, 1.77 µM in the assay with IGROV1 ovarian and 1.88 µM with SW-620 colon. The TGI in the assay with DU-145 prostate amounted to 10.4 µM; in the assay with SK-OV-3 ovarian, 15.9 µM; with COLO 205 colon, 3.35 µM; in the assay on SNB-75 CNS it was 9.65 µM; in the assay on A498 renal, 14.9 µM; with HL-60(TB) leukemia it was 3.75 µM. Also, the TGI with OVCAR-8 ovarian amounted to 5.54 µM; with HT29 colon, 3.64 µM; in the assay with IGROV1 ovarian it was 4.19 µM; in the assay with SW-620 colon, 3.65 µM.
For `CN1CCN(CCCNC(=O)c2c3c(n4ccccc24)C(=O)c2ncccc2C3=O)CC1`, the GI50 in the assay with DU-145 prostate was 1.6 µM; in the assay with SK-OV-3 ovarian it was 3.46 µM; in the assay on COLO 205 colon it was 0.563 µM; with SNB-75 CNS, 3.92 µM; with A498 renal, 10 µM; with HL-60(TB) leukemia, 2.23 µM. The GI50 was 0.888 µM in the assay with OVCAR-8 ovarian, 0.612 µM in the assay on HT29 colon, 1.28 µM with IGROV1 ovarian and 0.578 µM in the assay on SW-620 colon. Moreover, the TGI amounted to 9.37 µM in the assay with DU-145 prostate; 19.6 µM in the assay with SK-OV-3 ovarian; 1.67 µM with COLO 205 colon; 16.3 µM in the assay with SNB-75 CNS; 25.1 µM in the assay on A498 renal; 5.76 µM with HL-60(TB) leukemia. In addition, the TGI in the assay with OVCAR-8 ovarian amounted to 5.99 µM; in the assay with HT29 colon, 2.96 µM; in the assay on IGROV1 ovarian it was 5.06 µM; in the assay on SW-620 colon, 9.49 µM.
